Experimental data taken from article PMC11162475, “Rule-based omics mining reveals antimicrobial macrocyclic peptides against drug-resistant clinical isolates” (Nature Communications, 2024).
Values after ≈ are worked out from the molar mass of the structure shown.

Tests used:
Format in all cases: cell-based
[1] = tested on: Micrococcus luteus DSM1790; assay: Kirby-Bauer assay, zone of inhibition (agar well); settings: M. luteus DSM1790; 10 μL DMSO stock (3.2 or 1.6 mg/mL) in well of soft LB agar, 30 °C, 20 h
Procedure: The stock solution of massatide A (1) and B (1a) 3.2 mg/mL were prepared in DMSO. 40 μL overnight culture of Micrococcus luteus DSM1790 was added to 20 mL soft Luria-Bertani agar (1% agar), and then poured into a plate. 10 μL tip was used to make two wells on the plate. 10 μL massatide A (1) or B (1a) solution was added in one of the wells, while in the other well, 10 μL DMSO was added as a negative control. The plates were incubated at 30 °C for 20 h to observe the zone of inhibition. Staphylococcus aureus ATCC25923 was also used to observe the inhibition zone using a similar method. The only difference is incubating at 37 °C. Stock solutions of sistertide A1, kebanetide A1 and A2 were 3.2 mg/mL, 1.6 mg/mL and 1.6 mg/mL, respectively. The method to observe the activity of these compounds individually was the same as that of massatide.

[2] = tested on: Staphylococcus aureus ATCC25923; assay: microbe, parasite or virus in culture
Procedure: (§1) For MIC determination, Staphylococcus aureus ATCC25923, Bacillus subtilis 168, Micrococcus luteus DSM1790, Enterococcus faecalis OG1RF, Enterococcus faecium MCC2763, Escherichia coli DH5α and Pseudomonas aeruginosa PAO1 were used as indicator strains. Nisin and vancomycin were used as positive controls. A dilution series of massatide A, massatide B, vancomycin (16, 8, 4, 2, 1, 0.5, 0.25, 0.125, 0.0625, 0.0313 μg/mL) and sistertide A1, kebanetide A1, kebanetide A2, nisin (64, 32, 16, 8, 4, 2, 1, 0.5, 0.25, 0.125 μg/mL) were prepared in 96-well plate from 1–10th column. The indicator strains were added to the compound-containing well. The indicator strain culture with no antibiotics was prepared in the 11th column. The 12th column was filled with 200 μL empty MHB medium. The 96-well plate was incubated at 37 °C for 20 h (30 °C for M. luteus and B. subtilis). The OD600 was detected on MULTISKAN Sky (Thermo Scientific) and MIC values were determined. The MIC values of clinical isolates were determined by Sichuan Primed Shines Bio-tech Co., Ltd. (China) following similar protocol. Levofloxacin was used as a positive control.

[3] = tested on: Enterococcus faecium MCC2763; assay: microbe, parasite or virus in culture
Procedure: as §1

[4] = tested on: Bacillus subtilis 168; assay: microbe, parasite or virus in culture
Procedure: as §1

[5] = tested on: Micrococcus luteus DSM1790; assay: microbe, parasite or virus in culture
Procedure: as §1

[6] = tested on: Enterococcus faecalis OG1RF; assay: microbe, parasite or virus in culture; settings: 20 h
Procedure: as §1

[7] = tested on: Pseudomonas aeruginosa PAO1; settings: Pseudomonas aeruginosa PAO1; dilution series in 96-well plate, MHB, 37 °C, 20 h, OD600
Procedure: as §1

[8] = tested on: Escherichia coli DH5α; settings: Escherichia coli DH5α; dilution series in 96-well plate, MHB, 37 °C, 20 h, OD600
Procedure: as §1

| Compound | inhibitory activity (zone of inhibition) [1] | MIC ([2]; ATCC25923, 20 h) [µg/mL] | MIC ([3]; MCC2763, 20 h) [µg/mL] | MIC ([4]; 168, 20 h) [µg/mL] | MIC ([5]; DSM1790, 20 h) [µg/mL] | MIC ([6]; OG1RF) [µg/mL] | MIC ([2]; Staphylococcus aureus ATCC25923, dilution series in 96-well plate, MHB, 37 °C, 20 h, OD600) [µg/mL] | MIC ([3]; Enterococcus faecium MCC2763, dilution series in 96-well plate, MHB, 37 °C, 20 h, OD600) [µg/mL] | MIC ([4]; Bacillus subtilis 168, dilution series in 96-well plate, MHB, 30 °C, 20 h, OD600) [µg/mL] | MIC ([5]; Micrococcus luteus DSM1790, dilution series in 96-well plate, MHB, 30 °C, 20 h, OD600) [µg/mL] | MIC ([6]; Enterococcus faecalis OG1RF, dilution series in 96-well plate, MHB, 37 °C, OD600) [µg/mL] | MIC [7] [µg/mL] | MIC [8] [µg/mL] |
| --- | --- | --- | --- | --- | --- | --- | --- | --- | --- | --- | --- | --- | --- |
| C=C1NC(=O)C(N(C)C)C(C)SC[C@@H](C(=O)N[C@H](C(=O)N[C@@H](C)C(=O)N[C@H](C)C(=O)N[C@@H](C)C(=O)N/C(=C\C)C(=O)N[C@@H](C)C(=O)N[C@H](C)C(=O)N[C@@H](Cc2ccccc2)C(=O)N[C@H](C(=O)N[C@@H](C)C(=O)N[C@H](C)C(=O)N[C@@H](CCC(N)=O)C(=O)N[C@@H](Cc2ccccc2)C(=O)N[C@H](C)C(=O)N[C@@H](C)C(=O)N[C@@H](CCCCN)C(=O)NC2C(=O)N[C@@H](C(C)C)C(=O)N[C@@H](C)C(=O)NCC(=O)NCC(=O)N/C=C\SC2C)C(C)C)[C@@H](C)CC)NC(=O)[C@H](C)NC(=O)[C@@H]2CCCN2C1=O (some centres unmarked) [kebanetide A2 (5), kebanetide A2] | exhibited growth inhibition | >64 | 32 (≈ 13.4 µM) | 32 to 64 | 32 (≈ 13.4 µM) | 16 (≈ 6.72 µM) | – | – | – | – | – | – | – |
| kebanetide A1 [Kebanetide A1 (4)] | exhibited growth inhibition | – | – | – | – | – | 64 | 32 | 8 | 8 | 16 | >64 | >64 |
